Each block holds one compound with its values, some of them ahead of it. Activity calls are given as the source filed them. No cut-off for these calls is given here.
Key:
[1] = system: CAL-27; experiment: Induction of cell cycle arrest in human CAL-27 cells assessed as accumulation of cells at S phase at 1 to 1000 nM incubated for 48 hrs by flow cytometry analysis (Rvb=18%); format: functional; conditions: dose 1-1000 nM
[2] = system: CAL-27; experiment: Induction of apoptosis in human CAL-27 cells assessed as viable cells at 10 nM incubated for 72 hrs by Annexin V-FITC/propidium iodide staining based flow cytometry analysis (reference value: 90.41%); format: functional; conditions: read-out: Activity
[3] = Toxicity in BALB/c mouse xenografted with human CAL-27 cells assessed as body weight at 0.3 mg/kg, iv treated four times a week for 30 days; format: organism-based; conditions: in vivo, 720 h, time 30 day
[4] = system: CAL-27; experiment: Induction of apoptosis in human CAL-27 cells assessed as early apoptotic cells at 10 nM incubated for 72 hrs by Annexin V-FITC/propidium iodide staining based flow cytometry analysis (reference value: 7.74%); format: functional
[5] = system: CAL-27; experiment: Induction of apoptosis in human CAL-27 cells assessed as late apoptotic cells at 1000 nM incubated for 72 hrs by Annexin V-FITC/propidium iodide staining based flow cytometry analysis (reference value: 1.82%); format: functional
[6] = system: CAL-27; experiment: Induction of apoptosis in human CAL-27 cells assessed as apoptotic cells at 1 nM incubated for 72 hrs by Annexin V-FITC/propidium iodide staining based flow cytometry analysis (reference value: 10.29%); format: functional
[7] = Half life in ICR mouse at 3 mg/kg, po measured upto 24 hrs by LC-MS/MS analysis; format: ADME, organism-based; conditions: in vivo
[8] = system: CAL-27; experiment: Induction of cell cycle arrest in human CAL-27 cells assessed as accumulation of cells at G1 phase at 1 to 1000 nM incubated for 48 hrs by flow cytometry analysis (Rvb= 58.6%); format: functional; conditions: dose 1-1000 nM
[9] = system: CAL-27; experiment: Induction of apoptosis in human CAL-27 cells assessed as late apoptotic cells at 10 nM incubated for 72 hrs by Annexin V-FITC/propidium iodide staining based flow cytometry analysis (reference value: 1.82%); format: functional
[10] = system: CAL-27; experiment: Antitumor activity against human CAL-27 cells xenografted in BALB/c mouse model assessed as reduction in reduction in Ki-67 expression at 0.6 mg/kg, iv treated four times a week for 30 days by immunohistochemical staining analysis; format: functional, organism-based; conditions: time 30.0 day
[11] = Toxicity in BALB/c mouse xenografted with human CAL-27 cells assessed as body weight at 0.6 mg/kg, iv treated four times a week for 30 days; format: organism-based; conditions: in vivo, 720 h, time 30 day
[12] = system: CAL-27; experiment: Induction of apoptosis in human CAL-27 cells assessed as viable cells at 1 nM incubated for 72 hrs by Annexin V-FITC/propidium iodide staining based flow cytometry analysis (reference value: 90.41%); format: functional; conditions: read-out: Activity
[13] = system: CAL-27; experiment: Effect on epithelial cell proliferation in human CAL-27 cells assessed as regulation of cell proliferation related gene expression at 1 nM incubated for 48 hrs by GO analysis; format: functional, cell-based
[14] = system: CAL-27; experiment: Induction of apoptosis in human CAL-27 cells assessed as viable cells at 1000 nM incubated for 72 hrs by Annexin V-FITC/propidium iodide staining based flow cytometry analysis (reference value: 90.41%); format: functional; conditions: read-out: Activity
[15] = system: CAL-27; experiment: Induction of apoptosis in human CAL-27 cells assessed as viable cells at 100 nM incubated for 72 hrs by Annexin V-FITC/propidium iodide staining based flow cytometry analysis (reference value: 90.41%); format: functional; conditions: read-out: Activity
[16] = system: CAL-27; experiment: Induction of apoptosis in human CAL-27 cells assessed as late apoptotic cells at 100 nM incubated for 72 hrs by Annexin V-FITC/propidium iodide staining based flow cytometry analysis (reference value: 1.82%); format: functional
[17] = system: CAL-27; experiment: Induction of apoptosis in human CAL-27 cells assessed as late apoptotic cells at 1 nM incubated for 72 hrs by Annexin V-FITC/propidium iodide staining based flow cytometry analysis (reference value: 1.82%); format: functional
[18] = system: CAL-27; experiment: Antiproliferative activity against human CAL-27 cells assessed as inhibition of cell communities at 1 uM treated for 11 days by plate clone formation assay; format: functional, cell-based; conditions: time 11.0 day
[19] = system: CAL-27; experiment: Effect on cell adhesion molecule in human CAL-27 cells assessed as regulation of gene expression at 1 nM incubated for 48 hrs by GSEA analysis; format: functional, cell-based
[20] = system: CAL-27; experiment: Induction of apoptosis in human CAL-27 cells assessed as early apoptotic cells at 1000 nM incubated for 72 hrs by Annexin V-FITC/propidium iodide staining based flow cytometry analysis (reference value: 7.74%); format: functional
[21] = system: CAL-27; experiment: Antitumor activity against human CAL-27 cells xenografted in BALB/c mouse model assessed as cancer cell death at 0.6 mg/kg, iv treated four times a week for 30 days by HE staining analysis; format: functional, organism-based; conditions: time 30.0 day
[22] = system: CAL-27; experiment: Antitumor activity against human CAL-27 cells xenografted in BALB/c mouse model assessed as reduction in nuclear division at 0.6 mg/kg, iv treated four times a week for 30 days by HE staining analysis; format: functional, organism-based; conditions: time 30.0 day
[23] = system: CAL-27; experiment: Induction of apoptosis in human CAL-27 cells assessed as early apoptotic cells at 100 nM incubated for 72 hrs by Annexin V-FITC/propidium iodide staining based flow cytometry analysis (reference value: 7.74%); format: functional
[24] = system: CAL-27; experiment: Antitumor activity against human CAL-27 cells xenografted in BALB/c mouse model assessed as tumor volume change at 0.3 mg/kg, iv treated four times a week for 30 days; format: functional; conditions: CAL-27, 720 h, time 30 day, read-out: TGI
[25] = system: CAL-27; experiment: Effect on cell growth factor in human CAL-27 cells assessed as regulation of cell growth factor related gene expression at 1 nM incubated for 48 hrs by GO analysis; format: functional, cell-based
[26] = system: CAL-27; experiment: Effect on cell cycle in human CAL-27 cells assessed as regulation of gene expression at 1 nM incubated for 48 hrs by GSEA analysis; format: functional, cell-based
[27] = system: CAL-27; experiment: Induction of apoptosis in human CAL-27 cells assessed as viable cells at 1 nM incubated for 72 hrs by Annexin V-FITC/propidium iodide staining based flow cytometry analysis (reference value: 88.23%); format: functional; conditions: read-out: Activity
[28] = system: CAL-27; experiment: Induction of apoptosis in human CAL-27 cells assessed as early apoptotic cells at 100 nM incubated for 72 hrs by Annexin V-FITC/propidium iodide staining based flow cytometry analysis (reference value: 9.16%); format: functional
[29] = system: CAL-27; experiment: Induction of apoptosis in human CAL-27 cells assessed as late apoptotic cells at 1000 nM incubated for 72 hrs by Annexin V-FITC/propidium iodide staining based flow cytometry analysis (reference value: 2.57%); format: functional
[30] = system: CAL-27; experiment: Induction of apoptosis in human CAL-27 cells assessed as viable cells at 100 nM incubated for 72 hrs by Annexin V-FITC/propidium iodide staining based flow cytometry analysis (reference value: 88.23%); format: functional; conditions: read-out: Activity
[31] = system: CAL-27; experiment: Induction of apoptosis in human CAL-27 cells assessed as early apoptotic cells at 10 nM incubated for 72 hrs by Annexin V-FITC/propidium iodide staining based flow cytometry analysis (reference value: 9.16%); format: functional
[32] = system: CAL-27; experiment: Induction of apoptosis in human CAL-27 cells assessed as viable cells at 10 nM incubated for 72 hrs by Annexin V-FITC/propidium iodide staining based flow cytometry analysis (reference value: 88.23%); format: functional; conditions: read-out: Activity
[33] = system: CAL-27; experiment: Induction of apoptosis in human CAL-27 cells assessed as viable cells at 1000 nM incubated for 72 hrs by Annexin V-FITC/propidium iodide staining based flow cytometry analysis (reference value: 88.23%); format: functional; conditions: read-out: Activity

half-life [7]: 31 min
SMILES: COc1cc2c(O[C@@H]3O[C@@H]4CO[C@@H](c5ccsc5)O[C@H]4[C@H](O)[C@H]3O)c3c(c(-c4ccc5c(c4)OCO5)c2cc1OC)C(=O)OC3
Activity [1]: 6%
viability at 0.01 µM [2]: 55%
Activity [3]: Non-toxic
Activity [4]: 16.27%
Activity [5]: 36.94%
Activity [6]: 15.78%
Activity [8]: 78.7%
Activity [9]: 25.74%
Activity [10]: Active
Activity [11]: Non-toxic
viability at 0.001 µM [12]: 93%
Activity [13]: Active
viability at 1 µM [14]: 28.1%
viability at 0.1 µM [15]: 28.6%
Activity [16]: 41.19%
Activity [17]: 2.19%
Activity [18]: Active; Showed More Potent Suppression
Activity [19]: Active
Activity [20]: 25.35%
Activity [21]: Active
Activity [22]: Active
Activity [23]: 27.61%
inhibition in vivo at 0.3 mg/kg [24]: 29.2%
Activity [25]: Active
Activity [26]: Active

SMILES: COc1cc2c(O)c3c(c(-c4ccc5c(c4)OCO5)c2cc1OC)C(=O)OC3 [DIPHYLLIN]
viability at 0.001 µM [27]: 91.4%
Activity [28]: 4.87%
Activity [29]: 5.03%
viability at 0.1 µM [30]: 92.5%
Activity [31]: 3.78%
viability at 0.01 µM [32]: 94.8%
viability at 1 µM [33]: 82.8%

From ChEMBL document CHEMBL6153048, “Synthesis and pharmacological evaluation of natural product diphyllin derivatives against head and neck squamous cell carcinoma” (Eur J Med Chem, 2025)
